{"source": "EPA's ToxValDB 9.5 (doi:10.2903/j.efsa.2018.5152)", "key": {"Typhlodromus pyri": {"tested_on": "Typhlodromus pyri", "assay": "LR50; higher = less toxic", "conditions": "not reported; mortality"}, "Colinus virginianus": {"tested_on": "Colinus virginianus", "conditions": "chronic"}, "Apis mellifera": {"tested_on": "Apis mellifera", "conditions": "acute, mortality"}, "[1]": {"conditions": "short-term; duration: 28 days; reproduction"}, "Tagia sp.": {"tested_on": "Tagia sp.", "conditions": "chronic/long-term; duration: 28 days; reproduction"}, "Aphidius rhopalosiphi": {"tested_on": "Aphidius rhopalosiphi", "assay": "LR50; higher = less toxic", "conditions": "not reported; mortality"}, "Oncorhynchus mykiss": {"tested_on": "Oncorhynchus mykiss", "conditions": "acute; duration: 96 hours; mortality"}}, "data": [{"smiles": "O.O.[Cu]", "note": "[Copper hydroxide (Cu(OH)2)]", "values": [{"measurement": "LR50", "setting": "Typhlodromus pyri", "result": "> 14900", "unit": "g/ha"}, {"measurement": "NOEL", "setting": "Colinus virginianus", "result": 5.05, "unit": "mg/kg-day"}, {"measurement": "LD50", "setting": "Apis mellifera; dermal", "result": 44.5, "unit": "µg/piece"}, {"measurement": "LC50", "setting": "Daphnia magna; acute, duration: 48 hours, mortality", "result": 0.0266, "unit": "µg/mL"}]}, {"smiles": "[Cl][Cu][Cl]", "note": "[Copper(II) chloride]", "values": [{"measurement": "NOEC", "setting": "[1]", "result": 16.2, "unit": "mg/kg-day"}, {"measurement": "NOEC", "setting": "Tagia sp.", "result": 8.4, "unit": "mg/kg"}]}, {"smiles": "[Cu+].[Cu+].[O-2]", "note": "[Cuprous oxide]", "values": [{"measurement": "LR50", "setting": "Typhlodromus pyri", "result": "> 26100", "unit": "g/ha"}, {"measurement": "LR50", "setting": "Aphidius rhopalosiphi", "result": 39200, "unit": "g/ha"}, {"measurement": "LC50", "setting": "Oncorhynchus mykiss", "result": 0.207, "unit": "µg/mL"}]}, {"smiles": "[Cl-].[Cu+2].[Cu+2].[OH-].[OH-].[OH-]", "note": "[Dicopper chloride trihydroxide]", "values": [{"measurement": "LR50", "setting": "Typhlodromus pyri", "result": "> 14900", "unit": "g/ha"}, {"measurement": "LD50", "setting": "Apis mellifera; dermal", "result": 44.3, "unit": "µg/piece"}, {"measurement": "LD50", "setting": "Apis mellifera; oral, unspecified", "result": 12.1, "unit": "µg/piece"}, {"measurement": "NOEC", "setting": "Daphnia magna; chronic/long-term, duration: 21 days, reproduction", "result": 0.0076, "unit": "mg/L"}]}]}
